From patent publication US20240226357A1, “Sanitization Method for Affinity Chromatography Matrices” (priority 2015, published 2024)
Where two headings read alike, the source gives them in different places.

Tests used:
Fab = conditions: Capto L, compared to PBS control
Protocol: A PreDictor™ (GE Healthcare) 96-well filter plate with 6 microliters Capto L in each well was subjected to the following procedure: • Removal of PreDictor storage solution (20% Ethanol) • Wash: 3×200 μl 20 mM phosphate, 150 mM NaCl pH 7.4 • Wash 3×200 μl MilliQ • Addition of 600 μl SIP solutions and 20 mM phosphate, 150 mM NaCl pH 7.4 (control) (48 solutions and duplicates in plate) • Sealing of bottom and top of the plates with Parafilm • Incubation in SIP solutions for 4 or 24 hours with shaking at 450 rpm • Liquids were removed by centrifugation (500×g, 1 min).
The static binding capacity (SBC) of a Fab was determined by: • 1. Removal of SIP solutions • 2. Wash: 1x600 μl MilliQ, 1x600 μl PBS • 3. Equilibration: 3x200 μl 20 mM phosphate, 150 mM NaCl pH 7.4 • 4. Sample loading: 200 μl Fab at a concentration of 2.5 mg/mL, incubation 10 min and 90 min at 1100 rpm • 5. Collection of unbound sample in UV-readable plates and measurement of UV absorbance at 280 (and 254 nm)
Liquids were removed by centrifugation (500×g, 1 min).
The UV absorbance of the PBS buffer at 280 nm (path check on) was subtracted from the UV absorbance of the flow through fraction (A280-blank280)
The concentration in the flow through fraction was calculated using a standard curve (A280-blank280)/1.2796
[formula] • Vsample=200μl • Vmedium=6 μl • Vr=6+0.6*Vmedium=9.6 • Vr: The retained volume i.e. filter volume (6 μl) and liquid volume in resin (0.6*6)

[1] = tested on: Bacillus subtilis (spores); experiment: Disinfectant challenge test in Capto L 50% slurry, viable count of spores; format: cell-based; conditions: for Log10 reduction of Bacillus subtilis spores: mean of duplicates
Protocol: (§1) The purpose of this investigation was to evaluate the bactericidal and sporicidal effect on • bacterial spores and bacteria of eight disinfectants as well as PBS as reference added to • Capto L 50% slurry. The effect was tested with contact times of 0 and 15 minutes as well as • 1, 4, and 24 hours.
(§2) The test was performed in slurries of Capto L 50% and disinfectants. Microorganisms were • added at a concentration of approximately 10^7 cfu/mL to the suspension and the reducing effect was evaluated after given time intervals by neutralizing the disinfectant. […] The results were evaluated with regard to log10 reductions of the microorganisms Bacillus subtilis (spores) and Pseudomonas aeruginosa (vegetative bacteria).
(§3) 10^7 cfu/mL of the microorganism was added to 10 mL of Capto L 50% slurry with disinfectant. Samples were mixed and duplicate samples of 0.1 mL were added to 50 mL of neutralizing agent (0.075 M phosphate buffer with 0.3% lecithin, 3.0% Tween 80, 0.5% sodium thiosulfate and 0.1% L-histidine). The total solution was analyzed by filtrating fractions corresponding to 10-times serial dilutions. Filters were rinsed three times with 100 mL of 0.9% NaCl. As positive control each microorganism was added to 50 mL of neutralizing agent, the same amount added as for the disinfectant challenge tests. The total solution was analyzed by filtrating fractions corresponding to 10-times serial dilutions. Filters were rinsed three times with 100 mL of 0.9% NaCl. Filters were incubated on TSA (Trypticase Soy Agar) at 30-35° C. for 2-5 days. Preliminary reading was performed after 1-3 days. The reduction of microorganisms was calculated as the log10 of the surviving microorganisms as compared to that of the positive control.

[2] = tested on: Pseudomonas aeruginosa (vegetative bacteria); experiment: Disinfectant challenge test in Capto L 50% slurry, viable count of vegetative bacteria; format: cell-based; conditions: mean of duplicates
Protocol: as §1, §2, §3

[3] = tested on: monoclonal antibody immobilized on a Biacore chip; experiment: Biacore (SPR) binding kinetics of ligands before and after incubation in 0.1 M peracetic acid; conditions: ligand incubated for 0 to 24 h in 0.1 M PAA
Protocol: The kinetics was measured by Surface Plasmon Resonance on a Biacore™ instrument. […] Reference sample (0 h) was withdrawn, 100 μl and buffer exchanged to 50 mM Ammonium Bicarbonate. • 4. 10% 1 M PAA was added and the incubations started. • 5. Samples were withdrawn after 1, 2, 4, 8, 16 and 24 h, 100 μl and buffer exchanged to 50 mM Ammonium Bicarbonate to stop the oxidation reaction. • 6. The concentrations were measured in all samples by measuring the UV absorbance at 276 nm. • 7. The samples were then analyzed on LC-MS and Biacore.

[4] = 4 h incubation in SIP solution, 90' incubation with Fab sample
[5] = 24 h incubation in SIP solution, 10' incubation with Fab sample

Compound	Log10 reduction of Bacillus subtilis spores ([1]; contact time 0 min)	Log10 reduction of Bacillus subtilis spores ([1]; contact time 15 min)	Log10 reduction of Bacillus subtilis spores ([1]; contact time 1 hour)	Log10 reduction of Bacillus subtilis spores ([1]; contact time 4 hours)	Log10 reduction of Bacillus subtilis spores ([1]; contact time 24 hours)	Log10 reduction of Pseudomonas aeruginosa ([2]; contact time 0 min)	Log10 reduction of Pseudomonas aeruginosa ([2]; contact time 15 min)	Log10 reduction of Pseudomonas aeruginosa ([2]; contact time 1 hour)	Log10 reduction of Pseudomonas aeruginosa ([2]; contact time 4 hours)	Log10 reduction of Pseudomonas aeruginosa ([2]; contact time 24 hours)	Relative remaining SBC (%) (Fab; [4])	Relative remaining SBC (%) (Fab; [5])	also measured
CC(=O)OO [0.1M Peracetic acid, peracetic acid]	5.6 log10	>6.9 log10	>6.9 log10	>6.9 log10	>6.9 log10	>6.9 log10	>6.9 log10	>6.9 log10	>6.9 log10	>6.9 log10	–	–	Relative remaining SBC (%) (Fab; 4 h incubation in SIP solution, 10' incubation with Fab sample, listed as 100 mM Peracetic acid): 109%; Relative remaining SBC (%) (Fab; 4 h incubation in SIP solution, 90' incubation with Fab sample, listed as 100 mM Peracetic acid): 101%; Relative remaining SBC (%) (Fab; 24 h incubation in SIP solution, 10' incubation with Fab sample, listed as 100 mM Peracetic acid): 107%; Killing of B. subtilis spores (in words) ([1]; among the tested disinfectants): capable of efficiently killing B. subtilis spores
N=C(NCCCCCCNC(=N)NC(=N)Nc1ccc(Cl)cc1)NC(=N)Nc1ccc(Cl)cc1.O=C(O)[C@H](O)[C@@H](O)[C@H](O)[C@H](O)CO.O=C(O)[C@H](O)[C@@H](O)[C@H](O)[C@H](O)CO [2% Chlorhexidine digluconale, Chlorhexidine digluconale]	1.3 log10	1.2 log10	0.7 log10	1.6 log10	0.2 log10	>6.9 log10	>6.9 log10	>6.9 log10	>6.9 log10	>6.9 log10	–	–	–
OO [5% H2O2, hydrogen peroxide]	–	–	–	–	–	–	–	–	–	–	102%	102%	–
CC(=O)OO [500 mM Peracetic acid, Peracetic acid]	–	–	–	–	–	–	–	–	–	–	103%	97%	Relative remaining SBC (%) (Fab; 24 h incubation in SIP solution, 90' incubation with Fab sample): 102%
rPrA: recombinant Protein A	–	–	–	–	–	–	–	–	–	–	–	–	Affinity before and after SIP [3]: some loss in affinity with increasing SIP treatment
